Assay results taken from PubChem BioAssay (NCI).
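Cultured in 96-well plates, cells were exposed to test compound for 48 hours across five concentrations. TGI marks complete inhibition of growth.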

Key:
Assay in all cases: growth of human tumour cells (NCI), 48 h
[1] = tested on: PC-3 prostate
[2] = tested on: T-47D breast
[3] = tested on: UACC-257 melanoma
[4] = tested on: KM12 colon
[5] = tested on: UO-31 renal
[6] = tested on: MDA-MB-435
[7] = tested on: RPMI-8226 leukemia
[8] = tested on: LOX IMVI melanoma
[9] = tested on: SF-268 CNS
[10] = tested on: NCI-H226 lung
[11] = tested on: MALME-3M melanoma
[12] = tested on: NCI-H460 lung
[13] = tested on: SW-620 colon
[14] = tested on: DU-145 prostate
[15] = tested on: SK-MEL-28 melanoma
[16] = tested on: OVCAR-3 ovarian
[17] = tested on: A549 NSCLC
[18] = tested on: IGROV1 ovarian
[19] = tested on: NCI-H23 lung
[20] = tested on: HT29 colon
[21] = tested on: MOLT-4 leukemia
[22] = tested on: MDA-MB-231 breast
[23] = tested on: EKVX NSCLC
[24] = tested on: BT-549 breast
[25] = tested on: SK-MEL-2 melanoma
[26] = tested on: M14 melanoma
[27] = tested on: TK-10 renal
[28] = tested on: SR leukemia
[29] = tested on: CAKI-1 renal
[30] = tested on: OVCAR-5 ovarian
[31] = tested on: U251 CNS
[32] = tested on: HOP-62 NSCLC
[33] = tested on: MCF7 breast
[34] = tested on: ACHN renal
[35] = tested on: HOP-92 NSCLC
[36] = tested on: 786-0 renal
[37] = tested on: SF-539 CNS
[38] = tested on: HCT-116 colon
[39] = tested on: COLO 205 colon
[40] = tested on: UACC-62 melanoma
[41] = tested on: HCC-2998 colon
[42] = tested on: SK-MEL-5 melanoma
[43] = tested on: NCI/ADR-RES ovarian
[44] = tested on: HCT-15 colon
[45] = tested on: OVCAR-8 ovarian
[46] = tested on: SNB-19 CNS
[47] = tested on: OVCAR-4 ovarian
[48] = tested on: K-562 leukemia
[49] = tested on: SNB-75 CNS
[50] = tested on: A498 renal
[51] = tested on: RXF 393 renal
[52] = tested on: SK-OV-3 ovarian
[53] = tested on: SF-295 CNS

## N#Cc1nnc2ccccc2c1N
[1]
  TGI: > 100 µM
[2]
  TGI: > 100 µM
[3]
  TGI: > 100 µM
[4]
  TGI: > 100 µM
[5]
  TGI: > 100 µM
[6]
  TGI: > 100 µM
[7]
  TGI: > 100 µM
[8]
  TGI: > 100 µM
[9]
  TGI: > 100 µM
[10]
  TGI: > 100 µM
[11]
  TGI: > 100 µM
[12]
  TGI: > 100 µM
[13]
  TGI: > 100 µM
[14]
  TGI: > 100 µM
[15]
  TGI: > 100 µM
[16]
  TGI: 26.4 µM
[17]
  TGI: > 100 µM
[18]
  TGI: > 100 µM
[19]
  TGI: > 100 µM
[20]
  TGI: > 100 µM
[21]
  TGI: > 100 µM
[22]
  TGI: > 100 µM
[23]
  TGI: > 100 µM
[24]
  TGI: > 100 µM
[25]
  TGI: > 100 µM
[26]
  TGI: > 100 µM
[27]
  TGI: > 100 µM
[28]
  TGI: > 100 µM
[29]
  TGI: > 100 µM
[30]
  TGI: > 100 µM
[31]
  TGI: > 100 µM
[32]
  TGI: > 100 µM
[33]
  TGI: > 100 µM
[34]
  TGI: > 100 µM
[35]
  TGI: > 100 µM
[36]
  TGI: > 100 µM
[37]
  TGI: > 100 µM
[38]
  TGI: > 100 µM
[39]
  TGI: > 100 µM
[40]
  TGI: > 100 µM
[41]
  TGI: > 100 µM
[42]
  TGI: > 100 µM
[43]
  TGI: > 100 µM
[44]
  TGI: > 100 µM
[45]
  TGI: > 100 µM
[46]
  TGI: > 100 µM
[47]
  TGI: > 100 µM
[48]
  TGI: > 100 µM

## CC1(C)C2CCC1(C)[C@H](O)[C@H]2Nc1cc(C(F)(F)F)cc(C(F)(F)F)c1 (stereo not given in full)
[1]
  TGI: 8.42 µM
[2]
  TGI: 6.99 µM
[3]
  TGI: 12.9 µM
[4]
  TGI: 10.7 µM
[5]
  TGI: 12.7 µM
[6]
  TGI: 11.6 µM
[7]
  TGI: 7.11 µM
[8]
  TGI: 10.4 µM
[9]
  TGI: 8.02 µM
[10]
  TGI: 19.4 µM
[11]
  TGI: 9.12 µM
[12]
  TGI: 12 µM
[13]
  TGI: 12 µM
[14]
  TGI: 12.1 µM
[15]
  TGI: 7.14 µM
[16]
  TGI: 6.01 µM
[17]
  TGI: 13.6 µM
[18]
  TGI: 11.5 µM
[19]
  TGI: 6.98 µM
[20]
  TGI: 12.5 µM
[49]
  TGI: 3.56 µM
[21]
  TGI: 5.91 µM
[22]
  TGI: 15.3 µM
[23]
  TGI: 12.5 µM
[24]
  TGI: 8.31 µM
[25]
  TGI: 5.45 µM
[26]
  TGI: 15.6 µM
[27]
  TGI: 9.89 µM
[28]
  TGI: 9.23 µM
[29]
  TGI: 13.1 µM
[30]
  TGI: 21.1 µM
[31]
  TGI: 14.2 µM
[50]
  TGI: > 100 µM
[32]
  TGI: 17.7 µM
[33]
  TGI: > 100 µM
[34]
  TGI: > 100 µM
[36]
  TGI: 12.2 µM
[37]
  TGI: 15.6 µM
[51]
  TGI: 9.03 µM
[38]
  TGI: 8.17 µM
[39]
  TGI: 3.28 µM
[52]
  TGI: 13.8 µM
[40]
  TGI: > 100 µM
[41]
  TGI: 9.8 µM
[42]
  TGI: 17.6 µM
[53]
  TGI: 7.27 µM
[43]
  TGI: 7.13 µM
[44]
  TGI: 12.6 µM
[45]
  TGI: 9.26 µM
[46]
  TGI: 16.2 µM
[47]
  TGI: 17.3 µM
[48]
  TGI: 7.72 µM
